Test results published in patent US12226390B2, “Cannabinoids compositions with polyunsaturated fatty acid monoglycerides, methods and uses thereof” (SCF PHARMA INC., priority 2019, dated 2025).
≈ marks a conversion by molar mass, not a printed value.

Experiments:
COX-2 = biological target: T1, COX-2 (Homo sapiens, UniProt P35354); settings: native acid form; cited from earlier work
T1 sequence (P35354 18-604): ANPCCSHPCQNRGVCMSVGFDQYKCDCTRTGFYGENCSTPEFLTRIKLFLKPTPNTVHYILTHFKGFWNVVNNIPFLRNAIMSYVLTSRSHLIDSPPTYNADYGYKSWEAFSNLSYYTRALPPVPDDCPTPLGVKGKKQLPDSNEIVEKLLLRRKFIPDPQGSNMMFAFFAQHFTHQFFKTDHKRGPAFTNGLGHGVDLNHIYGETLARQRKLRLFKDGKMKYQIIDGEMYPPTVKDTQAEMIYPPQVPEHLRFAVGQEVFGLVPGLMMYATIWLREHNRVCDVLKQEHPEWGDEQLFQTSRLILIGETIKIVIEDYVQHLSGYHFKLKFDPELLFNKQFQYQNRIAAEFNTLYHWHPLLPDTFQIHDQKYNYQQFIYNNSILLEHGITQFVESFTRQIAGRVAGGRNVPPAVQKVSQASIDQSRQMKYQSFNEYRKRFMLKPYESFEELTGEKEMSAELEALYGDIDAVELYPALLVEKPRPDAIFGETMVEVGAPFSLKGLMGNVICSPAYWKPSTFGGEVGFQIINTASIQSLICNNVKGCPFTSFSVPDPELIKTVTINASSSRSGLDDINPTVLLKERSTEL

[1] = Human absorption study of composition 1 (cannabinoid extract containing CBDA in compound of formula IV and EPA fish oil); format: in vivo
Procedure: Cannabis dried flowers (7 g) was extracted with ethanol (100 ml) for 72 h at room temperature. The flowers was filtered and the ethanol was removed under vacuum without heating to give the cannabinoid crude extract (1.9 g) containing 85% CBDA and 4% THCA. The crude extract (315 mg) was dissolved in a mixture of compound of formula (IV) and EPA concentrated ethyl ester fish oil (3.5 g) to give composition 1.
2.47 g of composition 1 was encapsulated in four (4) hard gel capsules (size 00) for absorption study. A pilot absorption study was conducted in one volunteer. The four (4) hard gel capsules were swallowed with a glass of water by the volunteer fasted for 10 h. 200 ul of blood was collected by a lancet in a heparinised microtube at T=0, 0.5, 1, 1.5, 2, 2.5, 3, 3.5, 4, 4.5, and 6.5 h. The plasma was analyzed by HPLC/MS/MS to quantify the CBDA.

[2] = stated by Health Canada; cited from earlier work
[3] = native acid form; cited from earlier work
[4] = 400 mg CBD in corn oil, orally administered; cited from earlier work
[5] = Comparative human absorption cross-over study of CBD in compound of formula (IV) versus MCT oil; format: in vivo
Procedure: 54 mg of cannabidiol (CBD) was dissolved in 2.5 g of compound of formula (IV) to give a clear solution. 1.16 g of the mixture (25 mg CBD) was encapsulated in two (2) hard gel capsules (size 00) for absorption study. A pilot absorption study was conducted in one volunteer. The two (2) hard gel capsules were swallowed with a glass of water by the volunteer fasted for 10 h. 200 ul of blood was collected by a lancet in a heparinised microtube at T=0, 1, 2, 3, 4, 5, 6, 7 and 8 h. The plasma was analyzed by HPLC/MS/MS to quantify the CBD. A comparative study was conducted with the same amount of CBD but with MCT oil (medium-chain triglycerides oil) instead of compound of formula (IV).

[6] = CBD solubility in carrier oils; format: physicochemical; settings: for solubility: oil or lipid

Q: For `C=C(C)[C@@H]1CCC(C)=C[C@H]1c1c(O)cc(CCCCC)c(C(=O)O)c1O` [CBDA, Cannabidiolic Acid], which COX-2 inhibition (COX-2) is on record?
A: COX-2 inhibitor

Q: What about the “increase of the Cmax” value ([1]; 170 mg CBDA in compound of formula IV versus 400 mg CBD in corn oil (half of the dose)) of the same compound?
A: 500%

Q: And the Cmax ([1]; human, plasma, cannabinoid extract containing 170 mg of CBDA in compound of formula IV, oral, one fasted volunteer)?
A: 1000 ng/mL

Q: With `CCCCCc1cc(O)c2c(c1)OC(C)(C)[C@@H]1CCC(C)=C[C@@H]21` [THC, Tetrahydrocannabinol] as the compound, how does the oral bioavailability [2] read?
A: 10%

Q: Which psychotropic effect [3] does the source give for `CCCCCc1cc2c(c(O)c1C(=O)O)[C@@H]1C=C(C)CC[C@H]1C(C)(C)O2` [THCA, Tetrahydrocannabinolic acid] here?
A: no psychotropic effect

Q: For `C=C(C)[C@@H]1CCC(C)=C[C@H]1c1c(O)cc(CCCCC)cc1O` [CBD, Cannabidiol], which Cmax in plasma [4] is on record?
A: 181 ng/mL

Q: And the “absorption and bioavailability of CBD, compound of formula (IV) over MCT oil” value ([5]; 25 mg CBD oral in hard gel capsules, one volunteer fasted 10 h, plasma 0-8 h, FIG. 1)?
A: superiority

Q: What about the bioavailability ([5]; human, plasma, formulated in compound of formula IV, low dose of 25 mg, oral, read-out: CBD more bioavailable than in MCT oil) of the same compound?
A: 200%

Q: And the increase of solubility ([6]; formulation containing compound of formula IV and EPA fish oil versus corn oil)?
A: 33%

Q: What about the solubility ([6]; in a formulation containing compound of formula IV and EPA fish oil) of the same compound?
A: 400 mg/mL (≈ 1270 mM)

Q: What about the solubility ([6]; in corn oil) of the same compound?
A: ~300 mg/mL (≈ 954 mM)
